Reference: DBAASP
In brackets after ≈: the same amount, converted by molar mass.

Key:
Assay in all cases: ≥ marks a high value that may be exact or a test limit, other limits are often not marked, values filed in µg/mL are converted to µM
[1] = system: Escherichia coli KCTC 2593
[2] = system: Escherichia coli KCTC 1682
[3] = system: Salmonella typhimurium KCTC 1926
[4] = system: Salmonella typhimurium CCARM 8009
[5] = system: Staphylococcus aureus KCTC 3881
[6] = system: Staphylococcus aureus CCARM 3108
[7] = system: Salmonella typhimurium CCARM 8007
[8] = system: Staphylococcus aureus CCARM 3089
[9] = system: Staphylococcus epidermidis KCTC 1917
[10] = system: Escherichia coli CCARM 1238
[11] = system: Pseudomonas aeruginosa CCARM 2003
[12] = system: Pseudomonas aeruginosa KCTC 2004
[13] = system: Acinetobacter baumannii CCARM 12037
[14] = system: Staphylococcus aureus CCARM 3090
[15] = system: Escherichia coli CCARM 1229
[16] = system: Pseudomonas aeruginosa CCARM 2163
[17] = system: Staphylococcus aureus KCTC 1916
[18] = system: Bacillus subtilis KCTC 3068
[19] = system: Escherichia coli KCTC 2571
[20] = system: Pseudomonas aeruginosa CCARM 2095
[21] = system: Acinetobacter baumannii CCARM 12005
[22] = system: Pseudomonas aeruginosa KCTC 1637
[23] = system: Staphylococcus aureus KCTC 1621
[24] = system: Salmonella typhimurium CCARM 8003
[25] = system: Bacillus subtilis KCTC 1021
[26] = system: Pseudomonas aeruginosa CCARM 2002
[27] = system: Acinetobacter baumannii CCARM 12036
[28] = system: Pseudomonas aeruginosa KCTC 2513
[29] = system: Staphylococcus aureus CCARM 3114
[30] = system: Bacillus subtilis KCTC 1022
[31] = system: Staphylococcus aureus CCARM 3126
[32] = system: Acinetobacter baumannii CCARM 12035

Structure (SMILES)	MIC [1]	MIC [2]	MIC [3]	MIC [4]	MIC [5]	MIC [6]	MIC [7]	MIC [8]	MIC [9]	MIC [10]	MIC [11]	MIC [12]	MIC [13]	MIC [14]	MIC [15]	MIC [16]	MIC [17]	MIC [18]	MIC [19]	MIC [20]	also measured
CC[C@H](C)[C@H](NC(=O)CNC(=O)[C@H](CCCN=C(N)N)NC(=O)[C@H](C)NC(=O)[C@@H](NC(=O)[C@H](Cc1cnc[nH]1)NC(=O)[C@H](Cc1cnc[nH]1)NC(=O)[C@H](Cc1ccccc1)NC(=O)[C@@H](N)Cc1ccccc1)[C@@H](C)CC)C(=O)N[C@H](C(=O)N[C@@H](Cc1cnc[nH]1)C(=O)N[C@H](C(=O)NCC(=O)N[C@@H](CCCCN)C(=O)N[C@H](C(=O)N[C@H](C(=O)N[C@@H](Cc1cnc[nH]1)C(=O)N[C@@H](CCCN=C(N)N)C(=O)N[C@@H](CC(C)C)C(=O)N[C@H](C(=O)N[C@H](C(=O)NCC(=O)O)[C@@H](C)O)C(C)C)[C@@H](C)CC)[C@@H](C)O)C(C)C)C(C)C [FFHHIARGIVHVGKTIHRLVTG]	2 µM (≈ 4.99 µg/mL)	2 µM (≈ 4.99 µg/mL)	16 µM (≈ 39.9 µg/mL)	16 µM (≈ 39.9 µg/mL)	4 µM (≈ 9.98 µg/mL)	16 µM (≈ 39.9 µg/mL)	16 µM (≈ 39.9 µg/mL)	≥ 32 µM	4 µM (≈ 9.98 µg/mL)	≥ 32 µM	4 µM (≈ 9.98 µg/mL)	8 µM (≈ 20 µg/mL)	4 µM (≈ 9.98 µg/mL)	≥ 32 µM	≥ 32 µM	4 µM (≈ 9.98 µg/mL)	2 µM (≈ 4.99 µg/mL)	4 µM (≈ 9.98 µg/mL)	4 µM (≈ 9.98 µg/mL)	4 µM (≈ 9.98 µg/mL)	MIC [21]: 4 µM (≈ 9.98 µg/mL); MIC [22]: 4 µM (≈ 9.98 µg/mL); MIC [23]: 4 µM (≈ 9.98 µg/mL); MIC [24]: ≥ 32 µM; MIC [25]: 16 µM (≈ 39.9 µg/mL); MIC [26]: 4 µM (≈ 9.98 µg/mL); MIC [27]: 4 µM (≈ 9.98 µg/mL); MIC [28]: 16 µM (≈ 39.9 µg/mL); MIC [29]: 16 µM (≈ 39.9 µg/mL); MIC [30]: 2 µM (≈ 4.99 µg/mL); MIC [31]: 16 µM (≈ 39.9 µg/mL); MIC [32]: 4 µM (≈ 9.98 µg/mL)
CC[C@H](C)[C@H](NC(=O)CNC(=O)[C@H](CCCN=C(N)N)NC(=O)[C@H](Cc1ccccc1)NC(=O)[C@@H](NC(=O)[C@H](Cc1cnc[nH]1)NC(=O)[C@H](Cc1cnc[nH]1)NC(=O)[C@H](CCCCN)NC(=O)[C@@H](N)Cc1ccccc1)[C@@H](C)CC)C(=O)N[C@H](C(=O)N[C@@H](Cc1cnc[nH]1)C(=O)N[C@H](C(=O)NCC(=O)N[C@@H](CCCCN)C(=O)N[C@H](C(=O)N[C@H](C(=O)N[C@@H](Cc1cnc[nH]1)C(=O)N[C@@H](CCCN=C(N)N)C(=O)N[C@@H](CC(C)C)C(=O)N[C@H](C(=O)N[C@H](C(=O)NCC(=O)O)[C@@H](C)O)C(C)C)[C@@H](C)CC)[C@@H](C)O)C(C)C)C(C)C [FKHHIFRGIVHVGKTIHRLVTG]	2 µM (≈ 5.11 µg/mL)	4 µM (≈ 10.2 µg/mL)	8 µM (≈ 20.4 µg/mL)	16 µM (≈ 40.8 µg/mL)	2 µM (≈ 5.11 µg/mL)	16 µM (≈ 40.8 µg/mL)	16 µM (≈ 40.8 µg/mL)	16 µM (≈ 40.8 µg/mL)	2 µM (≈ 5.11 µg/mL)	16 µM (≈ 40.8 µg/mL)	2 µM (≈ 5.11 µg/mL)	8 µM (≈ 20.4 µg/mL)	2 µM (≈ 5.11 µg/mL)	16 µM (≈ 40.8 µg/mL)	16 µM (≈ 40.8 µg/mL)	2 µM (≈ 5.11 µg/mL)	2 µM (≈ 5.11 µg/mL)	4 µM (≈ 10.2 µg/mL)	2 µM (≈ 5.11 µg/mL)	2 µM (≈ 5.11 µg/mL)	MIC [21]: 2 µM (≈ 5.11 µg/mL); MIC [22]: 4 µM (≈ 10.2 µg/mL); MIC [23]: 4 µM (≈ 10.2 µg/mL); MIC [24]: 16 µM (≈ 40.8 µg/mL); MIC [25]: 4 µM (≈ 10.2 µg/mL); MIC [26]: 2 µM (≈ 5.11 µg/mL); MIC [27]: 2 µM (≈ 5.11 µg/mL); MIC [28]: 8 µM (≈ 20.4 µg/mL); MIC [29]: 16 µM (≈ 40.8 µg/mL); MIC [30]: 1 µM (≈ 2.55 µg/mL); MIC [31]: 16 µM (≈ 40.8 µg/mL); MIC [32]: 2 µM (≈ 5.11 µg/mL)
CC[C@H](C)[C@H](NC(=O)CNC(=O)[C@H](CCCN=C(N)N)NC(=O)[C@H](Cc1ccccc1)NC(=O)[C@@H](NC(=O)[C@H](Cc1cnc[nH]1)NC(=O)[C@H](Cc1cnc[nH]1)NC(=O)[C@H](Cc1ccccc1)NC(=O)[C@@H](N)CCCCN)[C@@H](C)CC)C(=O)N[C@@H](CCCCN)C(=O)N[C@@H](Cc1cnc[nH]1)C(=O)N[C@H](C(=O)NCC(=O)N[C@@H](CCCCN)C(=O)N[C@H](C(=O)N[C@H](C(=O)N[C@@H](Cc1cnc[nH]1)C(=O)N[C@@H](CCCN=C(N)N)C(=O)N[C@@H](CC(C)C)C(=O)N[C@H](C(=O)N[C@H](C(=O)NCC(=O)O)[C@@H](C)O)C(C)C)[C@@H](C)CC)[C@@H](C)O)C(C)C [KFHHIFRGIKHVGKTIHRLVTG]	2 µM (≈ 5.16 µg/mL)	1 µM (≈ 2.58 µg/mL)	1 µM (≈ 2.58 µg/mL)	8 µM (≈ 20.7 µg/mL)	2 µM (≈ 5.16 µg/mL)	4 µM (≈ 10.3 µg/mL)	8 µM (≈ 20.7 µg/mL)	4 µM (≈ 10.3 µg/mL)	1 µM (≈ 2.58 µg/mL)	4 µM (≈ 10.3 µg/mL)	2 µM (≈ 5.16 µg/mL)	2 µM (≈ 5.16 µg/mL)	2 µM (≈ 5.16 µg/mL)	4 µM (≈ 10.3 µg/mL)	4 µM (≈ 10.3 µg/mL)	2 µM (≈ 5.16 µg/mL)	2 µM (≈ 5.16 µg/mL)	1 µM (≈ 2.58 µg/mL)	2 µM (≈ 5.16 µg/mL)	2 µM (≈ 5.16 µg/mL)	MIC [21]: 2 µM (≈ 5.16 µg/mL); MIC [22]: 1 µM (≈ 2.58 µg/mL); MIC [23]: 2 µM (≈ 5.16 µg/mL); MIC [24]: 8 µM (≈ 20.7 µg/mL); MIC [25]: 4 µM (≈ 10.3 µg/mL); MIC [26]: 2 µM (≈ 5.16 µg/mL); MIC [27]: 2 µM (≈ 5.16 µg/mL); MIC [28]: 2 µM (≈ 5.16 µg/mL); MIC [29]: 8 µM (≈ 20.7 µg/mL); MIC [30]: 2 µM (≈ 5.16 µg/mL); MIC [31]: 4 µM (≈ 10.3 µg/mL); MIC [32]: 2 µM (≈ 5.16 µg/mL)
